Data on 1 compound can be found in patent US20230312556A1, “ARYLAMIDE COMPOUND, PHARMACEUTICAL COMPOSITION COMPRISING SAME, AND PREPARATION METHOD THEREFOR AND USE THEREOF” (SICHUAN KELUN-BIOTECH BIOPHARMACEUTICAL CO., LTD., priority 2020, published 2023).

For series [1], the system named is human melanoma cell A375 (BRAF-V600E mutation). Nature of the series: Cancer cell proliferation inhibition assay, A375. Type of series: cell-based. The settings on record: A-375, 72 h incubation, Cell Titer Glo. In short, it runs like this: (§1)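 Cells exposed to compound at 10 to 100000 nM (nine concentrations) for 72 h. Proliferation measured as cellular ATP by CellTiter-Glo luminescence, with IC50 derived per cell line.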

The nature of series [2]: Pharmacokinetic test in Balb/c mice. Type of series: in vivo. On the procedure:
The compounds were administered to female Balb/c mice by gavage (PO) to investigate the pharmacokinetic profile.
Compound 1 of the present invention and HM95573 (prepared according to Example 116 in CN104039798B) were administered via PO; the administration dosage was 10 mg/kg, and the administration vehicle was a 20% aqueous solution of hydroxypropyl-β-cyclodextrin. Blood samples were collected before the administration (0 h) and at 0.25, 0.5, 1, 2, 4, 6, 8, 24, 48, and 72 h after the administration; 50-70 μL of blood was drawn from the orbit and spotted on Whatman 903 card, which was air-dried at room temperature for testing. After the testing, the samples were placed in a sealed dry box and stored at −80° C. (DBS samples). The DBS samples were punched with a 6 mm punch, then 80 μL of 50% acetonitrile-water was added and shaken (800 rpm, 10 min), followed by sonication for 10 min, then 350 μL of acetonitrile containing internal standard was added and shaken (700 rpm, 10 min). After sonication for 10 min, the samples were centrifuged at 4000 rpm and 4° C. for 10 min, and the supernatant was collected for LC-MS/MS analysis. The pharmacokinetic parameters were calculated using the WinNonlin 6.3 software and employing a non-compartmental model, and the results are shown in Table 6.

The next series has as its target wild-type BRAF enzyme (Homo sapiens (Human), UniProt P15056). The experiment in a line: RAF inhibition assay (TB-PMAP2K1 kit), wild-type BRAF. It counts as biochemical. The settings on record: FLUORESCEIN-MAP2K1 substrate, 60 min reaction. On the procedure:
Assay protocol: the inhibitory effects of the compounds of the present invention on the wild-type BRAF enzyme, mutant CRAF enzyme (RAF1 Y340D and Y341D) and mutant BRAF enzyme (BRAF-V600E) activity were determined according to the instructions of the TB-PMAP2K1 (PSER217/221) kit (ThermoFisher). Different RAF enzymes and substrates (FLUORESCEIN-MAP2K1) were pre-incubated with test compounds at various concentrations at room temperature for 15 min, and then the adenosine triphosphate (ATP) was added to initiate the reaction. After incubation at room temperature for 60 min, EDTA and Tb-labeled anti-pMAP2K1 [pS217/221] antibody solutions were added, and incubation was performed at room temperature for 60 min before the detection of the fluorescence values of the compounds in each group. With the vehicle group (DMSO) as the negative control and the buffer group (without RAF enzyme) as the blank control, the relative inhibitory activity percentage (i.e., the inhibition rate) of a compound at different concentrations was calculated according to the following formula:
Relative inhibitory activity percentage=1−(Compound group at various concentrations−blank control)/(negative control−blank control)*100%
The relative inhibitory activity percentages of the compounds at different concentrations were plotted against the compound concentrations, the curve was fitted according to a four-parameter model, and the IC50 value was calculated according to the following formula:
y=min+(max−min)/(1+(x/IC50)^(−Hillslope))
wherein y is the relative inhibitory activity percentage, max and min are respectively the maximum and minimum values of the fitted curve, x is the logarithm concentration of the compound, and Hillslope is the slope of the curve.

In series [3] the test system is human hepatocellular carcinoma cell HepG2 (NRAS-Q61K mutation). Nature of the series: Cancer cell proliferation inhibition assay, HepG2. Type of series: cell-based. The settings on record: 72 h incubation, Cell Titer Glo. Put shortly: as §1
Series [4] in a line: Pharmacokinetic test in Beagle dogs. It counts as in vivo. The protocol: The compounds were administered to male Beagle dogs by gavage (PO) to investigate the pharmacokinetic profile.
Compound 1 of the present invention and HM95573 were administered via PO; the administration dosage was 2.5 mg/kg, and the solvent was a 20% aqueous solution of hydroxypropyl-β-cyclodextrin. Blood samples were collected before the administration (0 h) and at 0.25, 0.5, 1, 2, 4, 6, 8, 24, 48, and 72 hours after the administration, and 1 mL blood was collected from the limbs vein and placed in a K2-EDTA anticoagulation tube. After centrifugation at 4000 rpm for 5 min (4° C.), the plasma was separated and stored at −80° C. for testing. The plasma samples were processed by precipitating proteins, and then subjected to LC-MS/MS analysis. The pharmacokinetic parameters were calculated using the WinNonlin 6.3 software and employing a non-compartmental model, and the results are shown in Table 7.

The mark [5] stands for this setting: mouse, whole blood (dried blood spots), female Balb/c mice, PO, 10 mg/kg, DBS samples.
Where [6] appears, read: dog, male Beagle dogs, PO, 2.5 mg/kg, plasma.

wild-type BRAF enzyme, sequence (P15056 whole entry): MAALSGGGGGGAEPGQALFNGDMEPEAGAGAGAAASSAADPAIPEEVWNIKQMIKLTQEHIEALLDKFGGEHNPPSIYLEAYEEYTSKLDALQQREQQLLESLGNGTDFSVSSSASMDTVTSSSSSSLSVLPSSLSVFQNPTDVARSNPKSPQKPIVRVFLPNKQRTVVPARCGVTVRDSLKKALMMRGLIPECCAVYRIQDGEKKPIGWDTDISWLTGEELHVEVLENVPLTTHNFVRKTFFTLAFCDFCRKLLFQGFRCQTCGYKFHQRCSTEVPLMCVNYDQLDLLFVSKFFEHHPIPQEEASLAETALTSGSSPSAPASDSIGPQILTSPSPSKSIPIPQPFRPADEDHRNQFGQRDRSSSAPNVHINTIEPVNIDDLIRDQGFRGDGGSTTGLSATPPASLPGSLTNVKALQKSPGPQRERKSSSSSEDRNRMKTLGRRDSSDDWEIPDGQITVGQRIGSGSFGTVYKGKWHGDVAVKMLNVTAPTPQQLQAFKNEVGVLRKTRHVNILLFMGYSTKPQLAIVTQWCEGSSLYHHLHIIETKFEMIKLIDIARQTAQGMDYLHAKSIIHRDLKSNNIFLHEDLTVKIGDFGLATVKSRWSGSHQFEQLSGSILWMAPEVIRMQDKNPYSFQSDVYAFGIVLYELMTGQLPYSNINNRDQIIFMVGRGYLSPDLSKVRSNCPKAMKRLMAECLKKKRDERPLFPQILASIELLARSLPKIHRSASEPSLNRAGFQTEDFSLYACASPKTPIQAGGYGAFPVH

The term IC50 denotes the concentration needed to halve the response being measured. Read a low IC50 as inhibition by little substance. The term AUC(0-t) denotes exposure summed from dosing to a finite time, without extrapolation to infinity. Usually half-life stands for the time in which the quantity being followed falls by half. What is called Cmax is the highest concentration seen after dosing. One may read the Tmax as the time at which the peak concentration occurs. Consider `Cc1ccc2c(Nc3cccc(Cl)c3F)nccc2c1NC(=O)c1cccc2c(N)ncnc12` [Compound 1, 4-amino-N-(1-((3-chloro-2-fluorophenyl)amino)-6-methylisoquinolin-5-yl)quinazoline-8-carboxamide], for which the IC50 in series [1] came to 29.3 ± 2.3 nM; at wild-type BRAF enzyme, 18.7 ± 2.71 nM; in series [3], 71.3 ± 5.5 nM. Besides, the “Conclusion on pharmacokinetics in mice” value in series [2] (mice after PO administration) was “Conclusion: compound 1 of the present invention has a high maximum plasma concentration and a high exposure in mice after PO administration”. Also, the AUC(0-t) in series [2] (setting [5]) is 172 ± 18.3 µg·h/mL; in series [4] (setting [6]), 31 ± 4.24 µg·h/mL. For the same compound, the half-life in series [2] (setting [5]) is 8.33 ± 0.95 h; in series [4] (setting [6]) it was 15.4 ± 4.1 h. Besides, the Cmax is 8240 ± 586 ng/mL in series [2] (mouse, whole blood (dried blood spots), female Balb/c mice, PO, 10 mg/kg, DBS samples, read-out: Cmax) and 1800 ± 127 ng/mL in series [4] (dog, male Beagle dogs, PO, 2.5 mg/kg, plasma, read-out: Cmax). In addition, the time of peak concentration (Tmax) stood at 1.67 ± 0.58 h in series [2] (mouse, whole blood (dried blood spots), female Balb/c mice, PO, 10 mg/kg, DBS samples, read-out: Tmax) and 1 h in series [4] (dog, male Beagle dogs, PO, 2.5 mg/kg, plasma, read-out: Tmax). In series [4] (dogs after PO administration), the “Conclusion on pharmacokinetics in dogs” value is “Conclusion: Compound 1 of the present invention has a high maximum plasma concentration, high exposure, long half-life and good overall PK properties in dogs after PO administration”.
